The test system of series [1] is Clone 15 HL‐60 promyelocytic leukemia cells. Description: Anticancer assay (resazurin). The class given is cell-based, human. Particulars: for IC50: read-out: Anticancer activity, IC50 ± SD, Clone 15 HL‐60. The method, then:
(§1) The anticancer activities of synthesized compounds were evaluated using a resazurin‐based assay (Czekanska, [2011]). Accordingly, a screening method similar to that of the cytotoxicity assay was used to screen for anticancer activity, using human melanoma (A375), promyelocytic leukemia (Clone 15 HL‐60), lung cancer (A549), and breast cancer (MCF7) cells. The culture and assay methods are provided in the Supinfo S1.
(§2) The potential anticancer activities of synthesized compounds were screened using the resazurin assay. ^5 Breast adenocarcinoma (MCF7, ATCC® HTB-22™) and human melanoma (A375, ATCC® CRL-1619™) cells were cultured in Hyclone Dulbecco's modified Eagle’s medium with high glucose (Separations) supplemented with 10 % fetal bovine serum (FBS) (Thermofisher Scientific) and 1 % L-glutamine, penicillin-streptomycin and non-essential amino acids (Lonza). Human lung carcinoma (A549, ATCC®, CCL-185™) cells were cultured in Ham’s F12K medium supplemented with 10% FBS and 1% L-glutamine, penicillin-streptomycin and non-essential amino acids. Human promyelocytic leukemia (Clone 15 HL-60, ATCC® CRL-1946™) cells were cultured in RPMI-1640 medium (Sigma Aldrich) supplemented with 10% FBS and 1% penicillin-streptomycin. The cell lines were maintained in a humidified atmosphere at 37 °C and 5% CO2.
(§3) For the resazurin assay, 96 well plates were prepared with 100 μL of 100 000 cells/mL MCF7 cell suspension, 100 μL of 50 000 cells/mL A375 cell suspension, 100 μL of 25 000 cells/mL A549 cell suspension, or 50 μL of 50 000 cells/mL HL-60 cell suspension. The MCF7, A375 and A549 cell plates were incubated for 24 hours to allow adherence of the cells to the plate surface, after which the growth medium is replaced with 100 μL medium containing compounds. […] The cell lines were treated with: (i) parthenolide (Sigma Aldrich) (positive control); (ii) growth medium and solvent (negative control to compensate for possible solvent effects); (iii) growth medium and experimental compound solutions. […] Blanks contained growth medium without cells. The treated plates were incubated for 48 hours.
(§4) To initiate the resazurin assay, 50 μL of sterile-filtered resazurin sodium salt (Sigma Aldrich) solution (0.01 % in PBS) was added and the plates incubated for 2 hours (MCF7, A375 and A549 cells) or 24 hours (HL-60 cells). Absorbance was measured at 570 and 600 nm using the Thermofisher Scientific GO Multiscan plate reader. Data analysis was performed for each biological replicate using SkanIt 4.0 Research Edition software. Further data analysis, calculations and IC50 determinations were identical to that of the antileishmanial and cytotoxicity assays.
(§5) For the final IC50 of each compound, the mean IC50 of the biological replicates were calculated with standard deviation (SD).
For orientation: Resazurin is reduced to fluorescent resorufin, in cell work by metabolically active cells.

Series [2] has as its system A375 melanoma cells. Put plainly: Anticancer assay (resazurin). The class given is cell-based, human. As to conditions: n = 3, read-out: Anticancer activity, IC50 ± SD, A375. As for the experimental part:
as §1, §2, §3, §4, §5

Series [3] relates to L. donovani strain 1S amastigotes. Description: Anti-amastigote assay (intramacrophage, THP-1 host, resazurin). As to conditions: L. donovani 1S, read-out: 1S IC50 ± SD, Amastigote. The class given is cell-based. As for the experimental part: (§6) The activities of synthesized compounds against the intramacrophage parasites of the three Leishmania strains were evaluated using a modified, resazurin‐based method (Jain et al., [2012]; Njanpa et al., [2021]). Suspension cultures of human acute monocytic leukemia (THP‐1) cells were maintained in RPMI‐1640 medium (Sigma Aldrich) supplemented with 10% FBS and 1% penicillin–streptomycin, at 37°C and 5% CO2 in a humidified atmosphere. Duplicate 96‐well plates (for respective anti‐amastigote and cytotoxicity assays) were seeded with 200 μl of a 2.5 × 10^5 cells/ml suspension treated with 25 ng/ml phorbol 12‐myristate 13‐acetate (PMA), followed by 48‐h incubation to promote differentiation into adherent macrophages.
(§7) For the anti‐amastigote assay, differentiated plates were carefully washed with PBS, followed by the addition of 200 μl of stationary phase promastigotes in RPMI 1640 medium with 2% FBS. An MOI of 30:1 was used for all three Leishmania strains. The parasite‐treated plates were incubated for 24 h at 32°C (L. major) or 37°C (L. donovani) and 5% CO2 to promote infection of the macrophages. […] Blanks were represented by growth medium without cells, as well as parasite‐free THP‐1 cells. The treated plates were incubated for 72 h.
(§8) After incubation, the plates were gently washed three times with PBS to remove any remaining extracellular parasites. The wells were then treated with 20 μl of 0.05% sodium dodecyl sulfate in PBS for 30 s to lyse the host macrophages. Lysis was terminated by adding 180 μl promastigote growth medium with 10% FBS. To initiate the resazurin assay, 10 μl of resazurin solution (0.025% in PBS) was added to all wells and the plates were incubated for 24 h at 32°C (L. major) or 37°C (L. donovani) and 5% CO2. Absorbance measurements, calculations, and IC50 determinations were performed as described for the antipromastigote assay (Supinfo S1).

Series [4] has as its system L. major strain IR‐173 amastigotes. The description is as above. The class given is cell-based. Particulars: read-out: Antileishmanial activity, IC50 ± SD, Amastigote. As for the experimental part:
as §6, §7, §8

Series [5] concerns L. donovani strain 9515 amastigotes. The description is as above. The class given is cell-based. As to conditions: L. donovani 9515, read-out: 9515 IC50 ± SD, Amastigote. As for the experimental part: as §6, §7, §8
Series [6] concerns L. donovani strain 1S promastigotes. Put plainly: Antipromastigote assay (resazurin). As to conditions: L. donovani 1S, read-out: 1S IC50 ± SD, Promastigote. The class given is cell-based. As for the experimental part:
(§9) The antipromastigote activity of synthesized compounds was evaluated as described previously by Mangwegape et al. ([2021]) using three strains of L. donovani (1S (MHOM/SD/62/1S) and 9515 (MHOM/IN/95/9515)) and L. major (IR‐173 [MHOM/IR/−173]). The assay method is available in the Supinfo S1.
(§10) The antipromastigote activity of synthesized compounds was evaluated using a modified, resazurin-based method of Kulshrestha et al. ^2 and Siqueira-Neto et al. ^3 and on three Leishmania strains. Leishmania donovani (strains 1S (MHOM/SD/62/1S) and 9515 (MHOM/IN/95/9515)) and L. major (strain IR-173 (MHOM/IR/-173)) promastigotes were cultured in M199 with Hank's salts and 0.68 mM L-glutamine (Sigma Aldrich) supplemented with 50 U/mL Penicillin/Streptomycin solution (Lonza), 4.2 mM sodium bicarbonate, 25 mM Hepes, 10% fetal bovine serum, 0.25% hemin, 0.1% biotin, and 10 mM adenine (Sigma Aldrich) and the pH adjusted to 7.3 – 7.4. The promastigotes were maintained at 25 °C.
(§11) Amphothericin B (10 μM) served as the standard drug and growth medium without parasites served as the blank. The plates were incubated for 48 hours at 25 °C in humidified atmosphere. After incubation, 50 μL of resazurin solution (0.01% in PBS) was added to each well and the plates were further incubated at 25 °C in the dark for 24 hours. Absorbance was measured at 570 nm and 600 nm using the Thermofisher Scientific GO Multiscan plate reader. Data analysis was performed for each biological replicate using SkanIt 4.0 Research Edition software. Background absorbance of resazurin (600 nm) was subtracted from the absorbance values of resorufin (570 nm). The mean absorbance calculated and the percentage growth inhibition and cell viability were determined by the following equations: […]
(§12) The IC50 and Z-score were determined for each compound’s three biological replicates using the cell viability % values and GraphPad Prism 5. The mean IC50 of the biological replicates with standard deviation (SD) served as the final IC50 of each compound.

Series [7] deals with L. donovani strain 9515 promastigotes. Description: Antipromastigote assay (resazurin). The class given is cell-based. As to conditions: L. donovani 9515, read-out: 9515 IC50 ± SD, Promastigote. As for the experimental part:
as §9, §10, §11, §12

Series [8] relates to L. major strain IR‐173 promastigotes. Put plainly: Antipromastigote assay (resazurin). Particulars: L. major IR‐173, read-out: Antileishmanial activity, IC50 ± SD, Promastigote. The class given is cell-based. The method, then: as §9, §10, §11, §12
Setting [9] is: Leishmania major, THP-1, L. major IR‐173.

Read-outs that look alike come from different tables or passages of the source.

The term IC50 denotes the point on the concentration scale where inhibition reaches its midpoint. Take “(E)-4-Chloro-N'-[(5-nitrofuran-2-yl)methylene]-(1,1'-biphenyl)-4-sulfonohydrazide [2j]”: the IC50 in series [1] (n = 3), in series [2], in series [3], in series [4] (L. major IR‐173), in [5] and in [6] was more than 10 µM in each case. The IC50 in [7] and in series [8] was more than 10 µM in each case.
What is called melting point is the temperature, or range, at which the solid turns liquid. `Cc1cc(C)c(S(=O)(=O)NN)c(C)c1` [1e, 2,4,6-Trimethylbenzenesulfonohydrazide] displayed a melting point of 110 to 113 °C.
Same read-out and setting: as for `NNS(=O)(=O)c1ccc(-c2ccccc2)cc1` [1h, (1,1'-Biphenyl)-4-sulfonohydrazide], the figure is 180 to 183 °C.
On to `O=[N+]([O-])c1ccc(/C=N/NS(=O)(=O)c2ccc(I)cc2)o1` [2a, (E)-4-Iodo-N'-[(5-nitrofuran-2-yl)methylene]benzenesulfonohydrazide], for which the half-maximal inhibitory concentration (IC50) in [1] (Homo sapiens, HL-60, n = 3) was more than 10 µM; in series [2] (Homo sapiens, A-375), more than 10 µM; in series [3] (Leishmania donovani, THP-1), more than 10 µM; in series [4] (setting [9]) it was more than 10 µM; in series [5] (Leishmania donovani, THP-1), more than 10 µM; in [6] (Leishmania donovani) it was more than 10 µM. Also, the IC50 in [7] (Leishmania donovani) and in series [8] (Leishmania major) was more than 10 µM each time.
The molecule `COC1(S(=O)(=O)NN)C=CC(c2ccccc2)=CC1` (stereo not drawn) [1k, 4-Methoxy-(1,1'-biphenyl)-4-sulfonohydrazide] displayed a melting point of 173 to 175 °C.
In the case of `O=[N+]([O-])c1ccc(S(=O)(=O)N/N=C/c2ccc([N+](=O)[O-])o2)cc1` [2b, (E)-4-Nitro-N'-[(5-nitrofuran-2-yl)methylene]benzenesulfonohydrazide], the IC50 is less than 10 µM in [1] (Homo sapiens, HL-60, n = 3); 9.32 ± 0.9 µM in series [1] (n = 3); more than 10 µM in [2] (Homo sapiens, A-375); more than 10 µM in series [3] (Leishmania donovani, THP-1); more than 10 µM in series [4] (setting [9]); more than 10 µM in series [5] (Leishmania donovani, THP-1). Also, the IC50 in series [6] (Leishmania donovani), in series [7] (Leishmania donovani) and in series [8] (Leishmania major) was more than 10 µM each time. Also, the “Preliminary screening, growth inhibition, Clone 15 HL‐60” value in series [1] (cutoff 50% growth inhibition at 10 μM) is “qualified”.
With `NNS(=O)(=O)c1ccc(I)cc1` [1a, 4-Iodobenzenesulfonohydrazide], the melting point lay within 160 to 162 °C.
Consider `O=C1OCCN1/N=C/c1ccc([N+](=O)[O-])o1` [FZD, furazolidone, reference compound], for which the 50% inhibitory concentration (IC50) in series [3] (Leishmania donovani, THP-1) amounted to 1.94 µM; in series [4] (setting [9]), 2.8 ± 0.5 µM; in series [6] (Leishmania donovani), 0.32 µM; in series [7] (Leishmania donovani) it was 0.28 ± 0.04 µM; in series [8] (Leishmania major), 0.34 ± 0.03 µM.
As to `CC(=O)Nc1ccc(S(=O)(=O)NN)cc1` [1 g, N-[4-(Hydrazinylsulfonyl)phenyl]acetamide], the melting point lay in the range of 175 to 178 °C.
For `C=C1C(=O)O[C@H]2[C@H]1CC/C(C)=C/CC[C@@]1(C)O[C@@H]21` [PN, parthenolide, reference compound], the half-inhibitory concentration (IC50) in [1] (Homo sapiens, HL-60, n = 3) came out at 1.85 ± 0.15 µM; in [2] (Homo sapiens, A-375) it was 5.13 ± 0.81 µM.
For the molecule “(E)-4-Methoxy-N'-[(5-nitrofuran-2-yl)methylene]-(1,1'-biphenyl)-4-sulfonohydrazide [2k]”, the IC50 in series [1] (n = 3), in series [2], in series [3], in series [4] (L. major IR‐173), in series [5] and in [6] was more than 10 µM in each case. The IC50 in [7] and in series [8] was more than 10 µM in each case.
Molecule `NNS(=O)(=O)C1(F)C=CC(c2ccccc2)=CC1` (stereo not drawn) [1i, 4-Fluoro-(1,1'-biphenyl)-4-sulfonohydrazide] yielded a melting point of 164 to 169 °C.
In the case of `CC(=O)Nc1ccc(S(=O)(=O)N/N=C/c2ccc([N+](=O)[O-])o2)cc1` [2g, (E)-N-{4-{ {2-[(5-nitrofuran-2-yl)methylene]hydrazinyl}sulfonyl}phenyl}acetamide], the IC50 in series [2] (Homo sapiens, A-375) is more than 10 µM; in series [3] (Leishmania donovani, THP-1), more than 10 µM; in [4] (setting [9]), more than 10 µM; in series [6] (Leishmania donovani), more than 10 µM; in [8] (Leishmania major), more than 10 µM.
`NNS(=O)(=O)c1cccc2c1OCCO2` [1l, 2,3-Dihydrobenzo[b][1,4]dioxine-5-sulfonohydrazide] had a melting point of 101 to 103 °C.
Same read-out and setting: the same measure for `NNS(=O)(=O)C1(Cl)C=CC(c2ccccc2)=CC1` (stereo not drawn) [1j, 4-Chloro-(1,1'-biphenyl)-4-sulfonohydrazide]: 150 to 153 °C.
